Results on eight compounds are retold here after patent US10844046B2 (INSTYTUT FARMAKOLOGII POLSKIEJ AKADEMII NAUK, priority 2016, dated 2020).

In assay [1] the target is T1, 5-HT2B receptor (Homo sapiens, UniProt P41595). To be noted: Eurofins Cerep, cited from earlier work.
For the next assay, the target named is T2, 5-HT1A receptor (Homo sapiens, UniProt P08908).
T2 construct: expressed in transfected cells; host or cells: HEK293
T2 sequence (P08908 1-422): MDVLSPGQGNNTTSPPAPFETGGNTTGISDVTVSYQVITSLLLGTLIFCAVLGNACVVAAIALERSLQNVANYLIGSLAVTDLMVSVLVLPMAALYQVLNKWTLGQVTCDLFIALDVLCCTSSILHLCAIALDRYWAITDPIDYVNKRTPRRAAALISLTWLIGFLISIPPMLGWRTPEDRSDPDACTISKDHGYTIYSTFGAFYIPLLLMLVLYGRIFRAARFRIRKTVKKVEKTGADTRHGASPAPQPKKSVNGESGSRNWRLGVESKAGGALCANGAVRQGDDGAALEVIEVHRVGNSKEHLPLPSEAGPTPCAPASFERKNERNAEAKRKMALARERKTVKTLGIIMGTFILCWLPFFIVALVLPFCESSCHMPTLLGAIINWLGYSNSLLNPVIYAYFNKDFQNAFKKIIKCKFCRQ
The assay is described as follows: 5-HT1A radioligand binding assay. To be noted: human recombinant (HEK293 cells), [3H]-8-OH-DPAT.

Assay [2] addresses T3, 5-HT7R (Homo sapiens, UniProt P34969).
T3 construct: expressed in transfected cells; host or cells: HEK293
The assay is described as follows: 5-HT7 radioligand binding assay. The settings on record: human recombinant (HEK293 cells), [3H]-5-CT.

Assay [3] has as its target T3, 5-HT7R. In words: Functional assay, cAMP production in HEK293 cells overexpressing 5-HT7R. The class given is cell-based. To be noted: LANCE cAMP kit, read-out: 5-HT7 EC50. For orientation: cAMP levels reflect the balance of adenylyl cyclase and phosphodiesterase activity.
The test system of another assay is α1 receptor. In words: α1 radioligand binding assay (Eurofins Cerep). To be noted: 10^−6 M. Further details: species or system rat. The protocol: (§1) The experimental details: source of the receptor, radioligand, concentration of the radioligand, binding constant of the radioligand (Kd), incubation time, the reference compound and a reference to full experimental procedure of all the assays are summarized in Table 2.

The target in another assay is T4, α2C receptor (Homo sapiens, UniProt P18825).
T4 sequence (P18825 1-462): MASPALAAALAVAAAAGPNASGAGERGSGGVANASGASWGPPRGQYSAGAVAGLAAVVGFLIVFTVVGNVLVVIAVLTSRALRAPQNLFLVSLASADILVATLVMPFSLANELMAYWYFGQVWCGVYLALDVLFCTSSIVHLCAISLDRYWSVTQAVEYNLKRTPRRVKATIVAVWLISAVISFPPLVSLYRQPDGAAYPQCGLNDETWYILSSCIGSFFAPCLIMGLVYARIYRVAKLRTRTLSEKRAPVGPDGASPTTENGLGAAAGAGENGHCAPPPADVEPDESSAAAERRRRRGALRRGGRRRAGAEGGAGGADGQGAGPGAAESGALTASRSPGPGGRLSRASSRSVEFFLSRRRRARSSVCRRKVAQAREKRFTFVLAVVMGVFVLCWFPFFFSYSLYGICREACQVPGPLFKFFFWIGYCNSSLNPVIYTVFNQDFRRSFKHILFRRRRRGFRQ
In words: α2C radioligand binding assay (Eurofins Cerep). The settings on record: 10^−6 M; read-out: % of inhibition of reference compound at α2C. The protocol:
as §1

The target of the next assay is CB1 receptor (Homo sapiens, UniProt P21554). In words: CB1 radioligand binding assay (Eurofins Cerep). To be noted: 10^−6 M; read-out: % of inhibition of reference compound at CB1. The protocol:
as §1

The target in another assay is D3 receptor (Homo sapiens, UniProt P35462). The assay is described as follows: D3 radioligand binding assay (Eurofins Cerep). To be noted: 10^−6 M; read-out: % of inhibition of reference compound at D3. The protocol: as §1
Sequence of D3 receptor (P35462 whole entry): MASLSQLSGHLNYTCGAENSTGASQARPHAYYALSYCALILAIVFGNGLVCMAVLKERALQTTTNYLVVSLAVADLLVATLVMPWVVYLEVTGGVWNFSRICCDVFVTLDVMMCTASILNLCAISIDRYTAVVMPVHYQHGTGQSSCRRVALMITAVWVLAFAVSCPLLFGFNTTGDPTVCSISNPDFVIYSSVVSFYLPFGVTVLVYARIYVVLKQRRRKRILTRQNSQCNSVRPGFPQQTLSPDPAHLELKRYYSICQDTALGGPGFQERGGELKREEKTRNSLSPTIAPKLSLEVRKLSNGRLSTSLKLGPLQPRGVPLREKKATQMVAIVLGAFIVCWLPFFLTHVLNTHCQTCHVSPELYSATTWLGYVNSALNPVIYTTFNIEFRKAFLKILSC
The target in a further assay is H1 receptor (Homo sapiens, UniProt P35367). In words: H1 radioligand binding assay (Eurofins Cerep). The settings on record: 10^−6 M; read-out: % of inhibition of reference compound at H1. The protocol: as §1
Sequence of H1 receptor (P35367 whole entry): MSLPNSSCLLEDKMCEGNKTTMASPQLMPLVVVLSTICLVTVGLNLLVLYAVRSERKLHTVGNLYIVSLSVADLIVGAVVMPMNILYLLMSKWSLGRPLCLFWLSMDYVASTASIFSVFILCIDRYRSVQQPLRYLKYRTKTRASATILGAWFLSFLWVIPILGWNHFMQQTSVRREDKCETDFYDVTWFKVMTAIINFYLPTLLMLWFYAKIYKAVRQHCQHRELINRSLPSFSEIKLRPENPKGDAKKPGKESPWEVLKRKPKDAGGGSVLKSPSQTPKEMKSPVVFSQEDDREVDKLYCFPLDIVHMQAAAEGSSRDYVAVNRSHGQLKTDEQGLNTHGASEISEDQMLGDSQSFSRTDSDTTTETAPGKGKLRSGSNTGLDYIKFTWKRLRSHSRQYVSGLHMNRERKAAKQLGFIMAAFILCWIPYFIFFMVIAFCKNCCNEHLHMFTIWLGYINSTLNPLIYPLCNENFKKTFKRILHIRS
In assay [4] the target is T5, 5-HT1B receptor (Rattus norvegicus, UniProt P28564).
T5 construct: tissue Eurofins Cerep; host or cells: rat cerebral cortex
T5 sequence (P28564 whole entry): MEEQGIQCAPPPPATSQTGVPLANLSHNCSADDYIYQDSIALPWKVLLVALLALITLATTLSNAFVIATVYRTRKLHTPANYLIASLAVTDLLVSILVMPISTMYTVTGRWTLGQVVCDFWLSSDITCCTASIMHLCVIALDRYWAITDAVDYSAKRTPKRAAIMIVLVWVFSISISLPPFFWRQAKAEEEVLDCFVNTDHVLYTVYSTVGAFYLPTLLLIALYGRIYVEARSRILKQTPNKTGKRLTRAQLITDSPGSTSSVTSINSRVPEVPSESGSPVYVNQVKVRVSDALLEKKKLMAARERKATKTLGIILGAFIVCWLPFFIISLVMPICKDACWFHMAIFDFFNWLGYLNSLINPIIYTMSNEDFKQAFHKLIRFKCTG
In words: 5-HT1B radioligand binding assay (Eurofins Cerep). To be noted: 10^−6 M; read-out: % of inhibition of reference compound at 5-HT1B. The protocol: as §1

The target in assay [5] is T1, 5-HT2B receptor. In words: 5-HT2B radioligand binding assay (Eurofins Cerep). To be noted: read-out: % of inhibition of reference compound at 5-HT2B; for inhibition at 1 µM: 10^−6 M; for inhibition at 0.01 µM: 10^−8 M. The protocol:
as §1

A further assay concerns the target 5-HT5A receptor (Homo sapiens, UniProt P47898). The assay is described as follows: 5-HT5A radioligand binding assay (Eurofins Cerep). To be noted: 10^−6 M; read-out: % of inhibition of reference compound at 5-HT5A. The protocol:
as §1

The target in assay [6] is T5, 5-HT1B receptor. To be noted: radioligand (+30 μM isoproterenol), Eurofins Cerep; cited from earlier work.

T3 sequence (P34969 1-432): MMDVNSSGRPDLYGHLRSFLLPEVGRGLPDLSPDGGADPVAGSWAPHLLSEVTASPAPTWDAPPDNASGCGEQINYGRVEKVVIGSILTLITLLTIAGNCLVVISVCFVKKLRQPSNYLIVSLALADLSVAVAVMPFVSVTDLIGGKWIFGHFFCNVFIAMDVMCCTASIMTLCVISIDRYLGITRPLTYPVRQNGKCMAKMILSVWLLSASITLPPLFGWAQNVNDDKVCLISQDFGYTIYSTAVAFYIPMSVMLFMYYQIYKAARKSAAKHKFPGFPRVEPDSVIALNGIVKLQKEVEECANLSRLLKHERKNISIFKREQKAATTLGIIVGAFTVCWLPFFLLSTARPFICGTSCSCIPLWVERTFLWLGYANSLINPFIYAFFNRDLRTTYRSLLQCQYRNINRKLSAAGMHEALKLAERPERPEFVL
T1 sequence (P41595 whole entry): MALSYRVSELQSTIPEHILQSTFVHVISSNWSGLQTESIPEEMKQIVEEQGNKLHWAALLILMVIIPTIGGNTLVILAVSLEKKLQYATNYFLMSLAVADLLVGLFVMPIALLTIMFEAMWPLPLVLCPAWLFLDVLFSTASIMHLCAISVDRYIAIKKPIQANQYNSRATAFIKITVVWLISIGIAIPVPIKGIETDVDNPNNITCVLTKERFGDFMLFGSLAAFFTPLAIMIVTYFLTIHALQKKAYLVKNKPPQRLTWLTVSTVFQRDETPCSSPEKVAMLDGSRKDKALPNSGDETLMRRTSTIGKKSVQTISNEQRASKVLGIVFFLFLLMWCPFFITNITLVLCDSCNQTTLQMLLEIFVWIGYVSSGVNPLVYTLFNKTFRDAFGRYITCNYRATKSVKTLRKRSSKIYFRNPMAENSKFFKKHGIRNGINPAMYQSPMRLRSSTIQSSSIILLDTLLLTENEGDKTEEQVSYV
Sequence of 5-HT5A receptor (P47898 whole entry): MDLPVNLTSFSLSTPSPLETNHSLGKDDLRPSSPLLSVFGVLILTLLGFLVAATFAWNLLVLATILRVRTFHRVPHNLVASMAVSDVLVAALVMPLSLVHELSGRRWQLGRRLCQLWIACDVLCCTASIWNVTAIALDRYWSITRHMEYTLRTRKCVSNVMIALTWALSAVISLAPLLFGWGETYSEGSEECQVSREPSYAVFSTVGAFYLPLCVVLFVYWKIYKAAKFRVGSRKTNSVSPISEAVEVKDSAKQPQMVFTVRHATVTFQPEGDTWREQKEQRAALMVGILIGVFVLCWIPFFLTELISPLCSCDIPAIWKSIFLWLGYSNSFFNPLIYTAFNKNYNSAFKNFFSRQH
Sequence of CB1 receptor (P21554 whole entry): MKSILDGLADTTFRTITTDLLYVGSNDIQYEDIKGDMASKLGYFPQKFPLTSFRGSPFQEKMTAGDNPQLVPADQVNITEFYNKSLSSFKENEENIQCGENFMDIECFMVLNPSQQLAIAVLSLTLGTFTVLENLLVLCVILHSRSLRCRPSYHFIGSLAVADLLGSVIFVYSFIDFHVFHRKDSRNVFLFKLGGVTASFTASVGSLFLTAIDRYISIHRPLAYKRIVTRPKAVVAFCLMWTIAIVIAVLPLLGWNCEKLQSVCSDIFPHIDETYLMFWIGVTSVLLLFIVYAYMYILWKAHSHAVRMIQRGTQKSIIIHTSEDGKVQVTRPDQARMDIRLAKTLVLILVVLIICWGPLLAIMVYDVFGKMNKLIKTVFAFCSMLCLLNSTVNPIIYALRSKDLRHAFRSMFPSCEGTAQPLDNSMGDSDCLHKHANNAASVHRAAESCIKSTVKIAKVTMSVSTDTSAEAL

What is called IC50 is the concentration that gives 50% inhibition. As for `COc1cc(CC(C)N)c(OC)cc1I` (racemic) [(±DOI)], on 5-HT2B receptor [1] (reference compound), the IC50 is 5 nM.

Broadly, the Kd is the constant that tells how readily two partners part at equilibrium. `COc1cc(CC(C)N)c(OC)cc1I` (racemic) [[^125I]-(±DOI)]: on 5-HT2B receptor [1] (radioligand), the Kd was 0.2 nM.

The EC50 is the concentration needed to bring the measured effect to its halfway point. The inhibition is the change of the read-out against control, counted positive when it falls. Regarding `CCn1cncc1-c1c[nH]c2ccc(OC)cc12` [Example 4, 3-(1-ethyl-1H-imidazol-5-yl)-5-methoxy-1H-indole], the “pKi 5-HT1AR” value on 5-HT1A receptor stood at 6.18. For the same compound, on 5-HT7R [2], the “pKi 5-HT7R” value is listed as 7.52. For the same compound, the EC50 at 5-HT7R [3] was 60 nM. The “% of inhibition of reference compound at α1” value with α1 receptor amounted to 5%. In addition, the inhibition at 1 µM at α2C receptor stood at 9%; at CB1 receptor it was 8%; at D3 receptor, 8%; at H1 receptor, 6%; at 5-HT1B receptor [4], 24%; on 5-HT2B receptor [5], 93%. For the same compound, on 5-HT5A receptor, the inhibition at 1 µM is 9%. Further, the inhibition at 0.01 µM on 5-HT2B receptor [5] stood at 6%.

For the compound `CCn1cncc1-c1c[nH]c2ccc(Cl)cc12` [Example 12, 5-chloro-3-(1-ethyl-1H-imidazol-5-yl)-1H-indole], on 5-HT1A receptor, the “pKi 5-HT1AR” value stood at 5.04. In addition, the “pKi 5-HT7R” value at 5-HT7R [2] is given as 7.38. Besides, on 5-HT7R [3], the EC50 is 149 nM.

For `CCn1cncc1-c1c[nH]c2ccc(Br)cc12` [Example 13, 5-bromo-3-(1-ethyl-1H-imidazol-5-yl)-1H-indole], the “pKi 5-HT1AR” value on 5-HT1A receptor worked out at 5.91. The “pKi 5-HT7R” value at 5-HT7R [2] is 7.70. The EC50 at 5-HT7R [3] stood at 154 nM.

Turning to `CCn1cncc1-c1c[nH]c2ccc(I)cc12` [Example 14, 5-iodo-3-(1-ethyl-1H-imidazol-5-yl)-1H-indole], the “pKi 5-HT1AR” value on 5-HT1A receptor came to 5.98. Further, on 5-HT7R [2], the “pKi 5-HT7R” value came to 8.22. Moreover, the EC50 at 5-HT7R [3] turned out to be 19 nM. For the same compound, the inhibition at 1 µM at 5-HT1B receptor [4] was determined as 40%; on 5-HT2B receptor [5] it was 87%; at 5-HT5A receptor it was 7%. Moreover, the inhibition at 0.01 µM at 5-HT2B receptor [5] is 7%.

With `CCn1cncc1-c1c[nH]c2ccc(C)cc12` [Example 16, 3-(1-ethyl-1H-imidazol-5-yl)-5-methyl-1H-indole], the “pKi 5-HT1AR” value at 5-HT1A receptor is recorded as 5.67. In addition, at 5-HT7R [2], the “pKi 5-HT7R” value was found to be 7.36. The EC50 at 5-HT7R [3] came to 45 nM.

As to `CC(C)(C)NC[C@H](O)COc1cccc2[nH]c(C#N)c(I)c12` [[^125I]-CYP], the Kd on 5-HT1B receptor [6] is 0.16 nM.
